{
  "source": "PubChem BioAssay AID288",
  "about": "(DTP/NCI, 2004)",
  "tested_on": "BDF1 mice, M5076 sarcoma s.c., survival/tumor T/C",
  "experiment": "NCI In Vivo Anticancer Drug Screen. Data for tumor model Sarcoma M5076 (subcutaneous) in B6D2F1 (BDF1) mice",
  "procedure": "The antitumor activity of compounds was measured in mice bearing transplantable tumors. Survival or tumor size were measured and the results are expressed as the measurement made in the treated group (T) divided by the measurement made in the vehicle treated control group (C). The tumor model used in this assay is Sarcoma M5076 (subcutaneous) in B6D2F1 (BDF1) mice",
  "key": {"[1]": {"settings": "endpoint: median survival time, dose: 50.0 mg/kg/injection, schedule: Q01DX009 (ip), vehicle: saline with Tween-80, higher = longer survival"}, "[2]": {"settings": "endpoint: median survival time, dose: 100.0 mg/kg/injection, schedule: Q01DX009 (ip), vehicle: saline with Tween-80, higher = longer survival"}, "[3]": {"settings": "endpoint: median survival time, dose: 200.0 mg/kg/injection, schedule: Q01DX009 (ip), vehicle: saline with Tween-80, higher = longer survival"}, "[4]": {"settings": "endpoint: median tumor weight (est.), dose: 100.0 mg/kg/injection, schedule: Q01DX009 (ip), vehicle: saline with Tween-80, higher = larger tumour"}, "[5]": {"settings": "endpoint: median tumor weight (est.), dose: 200.0 mg/kg/injection, schedule: Q01DX009 (ip), vehicle: saline with Tween-80, higher = larger tumour"}},
  "note": "Where “and” joins values, the source holds several entries; their conditions need not be identical. Equal entries are not always repeated. Results filed as inconclusive are left out.",
  "data": [
    {"compound": "CC1(C)OC(C)(C)c2c1nnc(-c1ccccc1)[n+]2[O-]", "values": [
      {"measurement": "T/C", "setting": "[1]", "value": "93 % of control"},
      {"measurement": "T/C", "setting": "[2]", "value": "105 % of control"},
      {"measurement": "T/C", "setting": "[3]", "value": "103 % of control"},
      {"measurement": "T/C", "setting": "[4]", "value": "84 % of control"},
      {"measurement": "T/C", "setting": "[5]", "value": "60 % of control"}
    ]},
    {"compound": "Cc1c2ccncc2c(C)c2c1[nH]c1ccccc12", "values": [
      {"measurement": "T/C", "setting": "endpoint: mean tumor weight, dose: 12.5 mg/kg/injection, schedule: Q02DX011 (ip), vehicle: saline, higher = larger tumour", "value": "100 % of control"},
      {"measurement": "T/C", "setting": "endpoint: mean tumor weight, dose: 12.5 mg/kg/injection, schedule: Q02DX011 (ip), vehicle: water, higher = larger tumour", "value": "55 % of control"},
      {"measurement": "T/C", "setting": "endpoint: mean tumor weight, dose: 25.0 mg/kg/injection, schedule: Q02DX011 (ip), vehicle: saline, higher = larger tumour", "value": "65 % of control"},
      {"measurement": "T/C", "setting": "endpoint: mean tumor weight, dose: 50.0 mg/kg/injection, schedule: Q02DX011 (ip), vehicle: saline, higher = larger tumour", "value": "36 % of control"},
      {"measurement": "T/C", "setting": "endpoint: median tumor weight (est.), dose: 12.5 mg/kg/injection, schedule: Q02DX011 (ip), vehicle: saline, higher = larger tumour", "value": "355 % of control"},
      {"measurement": "T/C", "setting": "endpoint: median tumor weight (est.), dose: 12.5 mg/kg/injection, schedule: Q02DX011 (ip), vehicle: water, higher = larger tumour", "value": "47 % of control"},
      {"measurement": "T/C", "setting": "endpoint: median tumor weight (est.), dose: 25.0 mg/kg/injection, schedule: Q02DX011 (ip), vehicle: saline, higher = larger tumour", "value": "314 % of control"},
      {"measurement": "T/C", "setting": "endpoint: median tumor weight (est.), dose: 50.0 mg/kg/injection, schedule: Q02DX011 (ip), vehicle: saline, higher = larger tumour", "value": "98 % of control"}
    ]},
    {"compound": "Nc1nncs1", "values": [
      {"measurement": "T/C", "setting": "endpoint: mean tumor weight, dose: 18.8 mg/kg/injection, schedule: Q02DX011 (ip), vehicle: saline, higher = larger tumour", "value": "43 % of control"},
      {"measurement": "T/C", "setting": "endpoint: mean tumor weight, dose: 37.5 mg/kg/injection, schedule: Q02DX011 (ip), vehicle: saline, higher = larger tumour", "value": "3 % of control"},
      {"measurement": "T/C", "setting": "endpoint: median survival time, dose: 6.25 mg/kg/injection, schedule: Q01DX009 (ip), vehicle: saline, higher = longer survival", "value": "103 % of control"},
      {"measurement": "T/C", "setting": "endpoint: median survival time, dose: 12.5 mg/kg/injection, schedule: Q01DX009 (ip), vehicle: saline, higher = longer survival", "value": "111 % of control"},
      {"measurement": "T/C", "setting": "endpoint: median survival time, dose: 25.0 mg/kg/injection, schedule: Q01DX009 (ip), vehicle: saline, higher = longer survival", "value": "121 % of control"},
      {"measurement": "T/C", "setting": "endpoint: median survival time, dose: 50.0 mg/kg/injection, schedule: Q01DX009 (ip), vehicle: saline, higher = longer survival", "value": "122 % of control"},
      {"measurement": "T/C", "setting": "endpoint: median tumor weight (est.), dose: 6.25 mg/kg/injection, schedule: Q01DX009 (ip), vehicle: saline, higher = larger tumour", "value": "75 % of control"},
      {"measurement": "T/C", "setting": "endpoint: median tumor weight (est.), dose: 12.5 mg/kg/injection, schedule: Q01DX009 (ip), vehicle: saline, higher = larger tumour", "value": "53 % of control"},
      {"measurement": "T/C", "setting": "endpoint: median tumor weight (est.), dose: 18.8 mg/kg/injection, schedule: Q02DX011 (ip), vehicle: saline, higher = larger tumour", "value": "47 % of control"},
      {"measurement": "T/C", "setting": "endpoint: median tumor weight (est.), dose: 25.0 mg/kg/injection, schedule: Q01DX009 (ip), vehicle: saline, higher = larger tumour", "value": "22 % of control"}
    ]},
    {"compound": "O=[N+]([O-])c1nccn1CC(O)CO", "note": "(stereo not given)", "values": [
      {"measurement": "T/C", "setting": "endpoint: median survival time, dose: 1776.0 mg/kg/injection, schedule: Q01DX001 (ip), vehicle: saline, higher = longer survival", "value": "101 % of control and 102 % of control"},
      {"measurement": "T/C", "setting": "endpoint: median survival time, dose: 2500.0 mg/kg/injection, schedule: Q01DX001 (ip), vehicle: saline, higher = longer survival", "value": "102 % of control (2×) and 92 % of control"}
    ]},
    {"compound": "Cc1cc(C)nc(NS(=O)(=O)c2ccc(NC(=O)C(Cl)(Cl)Cl)cc2)n1", "values": [
      {"measurement": "T/C", "setting": "[1]", "value": "88 % of control"},
      {"measurement": "T/C", "setting": "[2]", "value": "88 % of control"},
      {"measurement": "T/C", "setting": "[3]", "value": "94 % of control"},
      {"measurement": "T/C", "setting": "[4]", "value": "171 % of control"},
      {"measurement": "T/C", "setting": "[5]", "value": "100 % of control"}
    ]},
    {"compound": "CNc1nc(N(C)C)nc(N(C)C)n1", "values": [
      {"measurement": "T/C", "setting": "endpoint: median tumor weight (est.), dose: 15.0 mg/kg/injection, schedule: Q02DX011 (ip), vehicle: water, higher = larger tumour", "value": "87 % of control"},
      {"measurement": "T/C", "setting": "endpoint: median tumor weight (est.), dose: 30.0 mg/kg/injection, schedule: Q02DX011 (ip), vehicle: water, higher = larger tumour", "value": "85 % of control"},
      {"measurement": "T/C", "setting": "endpoint: median tumor weight (est.), dose: 60.0 mg/kg/injection, schedule: Q02DX011 (ip), vehicle: water, higher = larger tumour", "value": "43 % of control"},
      {"measurement": "T/C", "setting": "endpoint: median tumor weight (est.), dose: 120.0 mg/kg/injection, schedule: Q02DX011 (ip), vehicle: water, higher = larger tumour", "value": "13 % of control"}
    ]},
    {"compound": "O=c1[nH]c(=O)n(C2CC(O)C(CO)O2)cc1F", "note": "(stereo not given)", "values": [
      {"measurement": "T/C", "setting": "endpoint: mean tumor weight, dose: 20.0 mg/kg/injection, schedule: Q02DX011 (ip), vehicle: Klucel (hydroxypropylcellulose) (HPC), higher = larger tumour", "value": "66 % of control"},
      {"measurement": "T/C", "setting": "endpoint: mean tumor weight, dose: 40.0 mg/kg/injection, schedule: Q02DX011 (ip), vehicle: Klucel (hydroxypropylcellulose) (HPC), higher = larger tumour", "value": "49 % of control"},
      {"measurement": "T/C", "setting": "endpoint: mean tumor weight, dose: 80.0 mg/kg/injection, schedule: Q02DX011 (ip), vehicle: Klucel (hydroxypropylcellulose) (HPC), higher = larger tumour", "value": "13 % of control"},
      {"measurement": "T/C", "setting": "endpoint: median tumor weight (est.), dose: 20.0 mg/kg/injection, schedule: Q02DX011 (ip), vehicle: Klucel (hydroxypropylcellulose) (HPC), higher = larger tumour", "value": "62 % of control"},
      {"measurement": "T/C", "setting": "endpoint: median tumor weight (est.), dose: 40.0 mg/kg/injection, schedule: Q02DX011 (ip), vehicle: Klucel (hydroxypropylcellulose) (HPC), higher = larger tumour", "value": "46 % of control and 70 % of control"},
      {"measurement": "T/C", "setting": "endpoint: median tumor weight (est.), dose: 160.0 mg/kg/injection, schedule: Q02DX011 (ip), vehicle: Klucel (hydroxypropylcellulose) (HPC), higher = larger tumour", "value": "23 % of control"}
    ]}
  ]
}
